The record followed here is ChEMBL document CHEMBL4190379 (Bioorg Med Chem Lett, 2018).

Series [1] addresses Histone acetyltransferase KAT2B (Homo sapiens) (UniProt Q92831). Put plainly: Binding affinity to human PCAF expressed in mammalian system assessed as remaining binding level at 1 uM by BROMOscan assay relative to control.
Series [2] has as its target Transcription initiation factor TFIID subunit 1-like (Homo sapiens) (UniProt Q8IZX4). Put plainly: Binding affinity to human TAF1L bromodomain 2 expressed in bacterial system assessed as remaining binding level at 1 uM by BROMOscan assay relative to control.
For series [3], the target named is Histone acetyltransferase KAT2A (Homo sapiens) (UniProt Q92830). Put plainly: Binding affinity to human GCN5L2 expressed in bacterial system assessed as remaining binding level at 1 uM by BROMOscan assay relative to control.
Chain of Histone acetyltransferase KAT2A (Homo sapiens) (Q92830 2-837 limits assumed): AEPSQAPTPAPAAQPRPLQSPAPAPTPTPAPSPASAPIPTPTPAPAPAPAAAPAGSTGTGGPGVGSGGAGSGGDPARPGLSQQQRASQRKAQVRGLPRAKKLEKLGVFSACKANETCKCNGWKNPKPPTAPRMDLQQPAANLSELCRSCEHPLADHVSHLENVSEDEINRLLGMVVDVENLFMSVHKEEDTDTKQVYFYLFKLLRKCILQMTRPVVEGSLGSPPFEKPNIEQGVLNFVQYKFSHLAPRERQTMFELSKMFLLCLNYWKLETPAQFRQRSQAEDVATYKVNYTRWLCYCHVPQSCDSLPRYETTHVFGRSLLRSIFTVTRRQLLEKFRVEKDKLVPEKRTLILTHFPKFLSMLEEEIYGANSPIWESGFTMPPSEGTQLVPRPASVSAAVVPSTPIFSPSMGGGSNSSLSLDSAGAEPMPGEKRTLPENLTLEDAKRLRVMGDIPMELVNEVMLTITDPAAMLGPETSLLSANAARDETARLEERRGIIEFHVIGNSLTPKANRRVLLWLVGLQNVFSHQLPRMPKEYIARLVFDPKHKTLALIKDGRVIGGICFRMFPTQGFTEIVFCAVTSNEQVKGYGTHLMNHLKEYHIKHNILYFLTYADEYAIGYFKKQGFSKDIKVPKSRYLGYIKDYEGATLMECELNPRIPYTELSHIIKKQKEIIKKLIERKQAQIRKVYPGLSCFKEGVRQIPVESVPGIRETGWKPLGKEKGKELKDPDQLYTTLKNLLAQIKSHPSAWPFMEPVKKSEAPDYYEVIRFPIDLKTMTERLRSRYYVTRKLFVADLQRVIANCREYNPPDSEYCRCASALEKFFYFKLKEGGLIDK
In series [4] the test system is MX1. Put plainly: Antiproliferative activity against human MX1 cells incubated for 72 hrs by cell-titer Glo assay. Conditions: MX1, 72 h. In kind it is functional, cell-based.
Series [5] concerns the target T1, E3 ubiquitin-protein ligase TRIM33 (Homo sapiens) (UniProt Q9UPN9).
T1 sequence (whole entry): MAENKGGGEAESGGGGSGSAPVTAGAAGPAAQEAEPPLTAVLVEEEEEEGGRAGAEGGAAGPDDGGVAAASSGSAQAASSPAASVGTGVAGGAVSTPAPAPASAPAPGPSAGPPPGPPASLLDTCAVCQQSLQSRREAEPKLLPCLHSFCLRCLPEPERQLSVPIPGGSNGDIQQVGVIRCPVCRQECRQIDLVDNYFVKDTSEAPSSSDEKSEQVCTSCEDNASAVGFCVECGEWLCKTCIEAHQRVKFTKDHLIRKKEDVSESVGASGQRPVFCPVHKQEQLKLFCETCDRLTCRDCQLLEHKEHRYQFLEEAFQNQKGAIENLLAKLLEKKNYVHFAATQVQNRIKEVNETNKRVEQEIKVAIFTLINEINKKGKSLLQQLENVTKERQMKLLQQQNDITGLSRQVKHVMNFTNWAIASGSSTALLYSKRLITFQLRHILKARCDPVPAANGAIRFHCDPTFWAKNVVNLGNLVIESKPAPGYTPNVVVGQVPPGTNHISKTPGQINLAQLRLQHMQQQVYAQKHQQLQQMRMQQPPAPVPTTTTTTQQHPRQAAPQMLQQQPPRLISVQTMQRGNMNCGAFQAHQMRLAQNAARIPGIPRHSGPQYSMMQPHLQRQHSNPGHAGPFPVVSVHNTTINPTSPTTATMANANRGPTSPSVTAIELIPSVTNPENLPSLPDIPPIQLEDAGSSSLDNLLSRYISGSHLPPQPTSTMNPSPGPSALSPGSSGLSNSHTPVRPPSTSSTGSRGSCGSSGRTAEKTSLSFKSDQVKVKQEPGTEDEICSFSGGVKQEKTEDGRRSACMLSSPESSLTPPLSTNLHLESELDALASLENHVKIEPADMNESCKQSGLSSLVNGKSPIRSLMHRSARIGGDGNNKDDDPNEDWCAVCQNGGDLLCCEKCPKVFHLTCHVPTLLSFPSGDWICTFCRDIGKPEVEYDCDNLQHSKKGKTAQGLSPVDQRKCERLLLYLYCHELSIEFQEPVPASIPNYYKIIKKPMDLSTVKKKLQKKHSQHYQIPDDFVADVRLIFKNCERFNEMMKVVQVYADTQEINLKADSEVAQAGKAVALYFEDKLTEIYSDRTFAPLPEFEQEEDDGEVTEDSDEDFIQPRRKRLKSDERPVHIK
The series is described as follows: Binding affinity to human TRIM33-phd-bromo expressed in bacterial system assessed as remaining binding level at 1 uM by BROMOscan assay relative to control.

The target of series [6] is Bromodomain and WD repeat-containing protein 1 (Homo sapiens) (UniProt Q9NSI6). Put plainly: Binding affinity to human WDR9 bromodomain 2 expressed in bacterial system assessed as remaining binding level at 1 uM by BROMOscan assay relative to control.
Chain of Bromodomain and WD repeat-containing protein 1 (Homo sapiens) (Q9NSI6 whole entry, the tested form may be a part): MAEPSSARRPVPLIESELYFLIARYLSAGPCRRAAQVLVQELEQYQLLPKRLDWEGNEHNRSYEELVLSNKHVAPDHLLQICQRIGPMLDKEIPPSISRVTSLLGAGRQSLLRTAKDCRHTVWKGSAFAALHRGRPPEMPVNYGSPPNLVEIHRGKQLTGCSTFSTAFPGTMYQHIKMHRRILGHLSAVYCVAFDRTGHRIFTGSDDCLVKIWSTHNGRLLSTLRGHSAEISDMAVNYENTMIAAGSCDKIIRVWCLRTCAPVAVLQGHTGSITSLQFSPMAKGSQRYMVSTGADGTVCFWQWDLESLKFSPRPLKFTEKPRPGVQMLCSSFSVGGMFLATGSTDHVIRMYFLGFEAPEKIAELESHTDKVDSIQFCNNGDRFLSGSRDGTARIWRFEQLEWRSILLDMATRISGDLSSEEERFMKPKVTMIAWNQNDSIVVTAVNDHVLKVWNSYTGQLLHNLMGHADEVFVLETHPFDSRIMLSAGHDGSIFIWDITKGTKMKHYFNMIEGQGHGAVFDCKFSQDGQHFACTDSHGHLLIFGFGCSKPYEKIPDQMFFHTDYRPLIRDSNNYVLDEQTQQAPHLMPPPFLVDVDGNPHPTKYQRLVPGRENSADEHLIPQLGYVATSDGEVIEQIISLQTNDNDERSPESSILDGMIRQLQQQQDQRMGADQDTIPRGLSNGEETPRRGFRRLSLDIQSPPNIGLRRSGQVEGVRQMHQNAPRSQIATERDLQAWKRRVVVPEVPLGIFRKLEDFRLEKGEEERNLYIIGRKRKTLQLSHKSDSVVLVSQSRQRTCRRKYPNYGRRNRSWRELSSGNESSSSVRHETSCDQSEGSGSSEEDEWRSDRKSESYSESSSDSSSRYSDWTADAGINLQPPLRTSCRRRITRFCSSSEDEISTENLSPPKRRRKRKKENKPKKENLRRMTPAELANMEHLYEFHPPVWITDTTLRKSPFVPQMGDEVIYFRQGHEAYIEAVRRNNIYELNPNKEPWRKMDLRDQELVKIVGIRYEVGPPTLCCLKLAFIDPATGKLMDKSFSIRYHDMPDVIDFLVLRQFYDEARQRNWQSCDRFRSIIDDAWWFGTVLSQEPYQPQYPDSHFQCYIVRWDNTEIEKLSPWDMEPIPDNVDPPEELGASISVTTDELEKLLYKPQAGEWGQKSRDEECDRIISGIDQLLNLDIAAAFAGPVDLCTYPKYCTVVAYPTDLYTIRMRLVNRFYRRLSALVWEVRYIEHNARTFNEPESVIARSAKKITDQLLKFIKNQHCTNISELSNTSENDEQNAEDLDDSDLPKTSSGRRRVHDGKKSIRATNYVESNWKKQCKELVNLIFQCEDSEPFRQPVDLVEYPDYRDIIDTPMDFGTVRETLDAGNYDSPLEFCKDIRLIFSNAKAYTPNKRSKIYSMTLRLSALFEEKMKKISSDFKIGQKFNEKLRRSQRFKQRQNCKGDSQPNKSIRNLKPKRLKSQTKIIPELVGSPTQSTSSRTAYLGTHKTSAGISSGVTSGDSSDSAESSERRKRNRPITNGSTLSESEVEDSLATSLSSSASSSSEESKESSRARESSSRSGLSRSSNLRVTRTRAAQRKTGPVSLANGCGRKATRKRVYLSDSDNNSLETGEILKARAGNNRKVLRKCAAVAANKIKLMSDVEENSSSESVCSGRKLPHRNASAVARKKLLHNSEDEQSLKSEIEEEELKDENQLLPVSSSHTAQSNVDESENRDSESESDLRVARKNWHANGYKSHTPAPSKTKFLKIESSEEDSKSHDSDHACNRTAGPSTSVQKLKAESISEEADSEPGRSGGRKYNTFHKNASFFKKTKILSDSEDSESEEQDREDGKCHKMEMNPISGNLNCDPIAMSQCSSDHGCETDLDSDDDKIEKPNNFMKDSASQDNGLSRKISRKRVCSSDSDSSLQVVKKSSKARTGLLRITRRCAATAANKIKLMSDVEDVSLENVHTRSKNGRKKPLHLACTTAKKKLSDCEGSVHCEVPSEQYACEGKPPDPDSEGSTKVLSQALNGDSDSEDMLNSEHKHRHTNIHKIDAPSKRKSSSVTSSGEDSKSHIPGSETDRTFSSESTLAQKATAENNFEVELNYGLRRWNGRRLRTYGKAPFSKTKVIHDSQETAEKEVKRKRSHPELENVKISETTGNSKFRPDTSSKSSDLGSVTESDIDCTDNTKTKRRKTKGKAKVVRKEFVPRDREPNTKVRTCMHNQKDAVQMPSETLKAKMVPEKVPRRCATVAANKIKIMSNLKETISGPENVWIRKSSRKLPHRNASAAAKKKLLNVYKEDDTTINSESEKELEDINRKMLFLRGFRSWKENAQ
Series [7] can be described thus: Permeability of the compound by PAMPA method. The class given is ADME. Conditions: read-out: permeability. For orientation: The PAMPA barrier holds no transporters, so it reflects passive diffusion.
Series [8] deals with Bromodomain-containing protein 2 (Homo sapiens, UniProt P25440). The series is described as follows: Binding affinity to BRD2 bromodomain 1 to 2 (G73 to A560 amino acids) (unknown origin) using Alexa647-labeled BET-inhibitor as fluorescent probe by bromodomain TR-FRET binding assay.
Series [9] has as its target Bromodomain adjacent to zinc finger domain protein 2A (Homo sapiens) (UniProt Q9UIF9). Put plainly: Binding affinity to human BAZ2A expressed in bacterial system assessed as remaining binding level at 1 uM by BROMOscan assay relative to control.
Series [10] deals with Bromodomain testis-specific protein (Homo sapiens, UniProt Q58F21). The series is described as follows: Binding affinity to BRDT bromodomain 1 to 2 (N21to P380 amino acids) (unknown origin) using Alexa647-labeled BET-inhibitor as fluorescent probe by bromodomain TR-FRET binding assay.
Series [11] deals with T2, Bromodomain-containing protein 9 (Homo sapiens) (UniProt Q9H8M2).
T2 sequence (whole entry): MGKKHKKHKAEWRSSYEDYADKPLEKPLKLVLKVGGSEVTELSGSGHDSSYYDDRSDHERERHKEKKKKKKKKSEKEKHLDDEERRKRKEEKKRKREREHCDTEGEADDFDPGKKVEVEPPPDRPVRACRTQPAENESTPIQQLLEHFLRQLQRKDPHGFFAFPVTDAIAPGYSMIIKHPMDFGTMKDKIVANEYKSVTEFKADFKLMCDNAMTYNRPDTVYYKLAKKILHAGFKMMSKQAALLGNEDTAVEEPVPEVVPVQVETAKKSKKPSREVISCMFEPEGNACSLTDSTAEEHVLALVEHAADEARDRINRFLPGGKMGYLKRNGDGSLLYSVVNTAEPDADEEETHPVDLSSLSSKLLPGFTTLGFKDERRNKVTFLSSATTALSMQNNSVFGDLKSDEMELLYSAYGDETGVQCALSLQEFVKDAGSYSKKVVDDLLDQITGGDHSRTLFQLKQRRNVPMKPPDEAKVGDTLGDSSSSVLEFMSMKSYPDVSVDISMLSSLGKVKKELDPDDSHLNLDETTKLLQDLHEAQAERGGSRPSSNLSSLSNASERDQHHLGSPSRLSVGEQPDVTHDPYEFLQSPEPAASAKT
The series is described as follows: Binding affinity to human BRD9 expressed in bacterial system assessed as remaining binding level at 1 uM by BROMOscan assay relative to control.

Series [12] deals with Bromodomain-containing protein 4 (Homo sapiens, UniProt O60885). Put plainly: Binding affinity to His-tagged BRD4 bromodomain 1 to 2 (K57 to K550 amino acids) (unknown origin) using Alexa647-labeled BET-inhibitor as fluorescent probe by bromodomain TR-FRET binding assay. The class given is single protein. In general terms: In TR-FRET formats the signal depends on donor and acceptor labels being close together.

Series [13] in a line: Intrinsic unbound clearance in mouse liver microsomes. The class given is ADME, microsome. (Liver microsomes are vesicles of endoplasmic reticulum, rich in cytochrome P450 enzymes.)
Series [14] deals with Protein polybromo-1 (Homo sapiens) (UniProt Q86U86). The series is described as follows: Binding affinity to human PBRM1 bromodomain 5 expressed in bacterial system assessed as remaining binding level at 1 uM by BROMOscan assay relative to control.
Chain of Protein polybromo-1 (Homo sapiens) (Q86U86 whole entry): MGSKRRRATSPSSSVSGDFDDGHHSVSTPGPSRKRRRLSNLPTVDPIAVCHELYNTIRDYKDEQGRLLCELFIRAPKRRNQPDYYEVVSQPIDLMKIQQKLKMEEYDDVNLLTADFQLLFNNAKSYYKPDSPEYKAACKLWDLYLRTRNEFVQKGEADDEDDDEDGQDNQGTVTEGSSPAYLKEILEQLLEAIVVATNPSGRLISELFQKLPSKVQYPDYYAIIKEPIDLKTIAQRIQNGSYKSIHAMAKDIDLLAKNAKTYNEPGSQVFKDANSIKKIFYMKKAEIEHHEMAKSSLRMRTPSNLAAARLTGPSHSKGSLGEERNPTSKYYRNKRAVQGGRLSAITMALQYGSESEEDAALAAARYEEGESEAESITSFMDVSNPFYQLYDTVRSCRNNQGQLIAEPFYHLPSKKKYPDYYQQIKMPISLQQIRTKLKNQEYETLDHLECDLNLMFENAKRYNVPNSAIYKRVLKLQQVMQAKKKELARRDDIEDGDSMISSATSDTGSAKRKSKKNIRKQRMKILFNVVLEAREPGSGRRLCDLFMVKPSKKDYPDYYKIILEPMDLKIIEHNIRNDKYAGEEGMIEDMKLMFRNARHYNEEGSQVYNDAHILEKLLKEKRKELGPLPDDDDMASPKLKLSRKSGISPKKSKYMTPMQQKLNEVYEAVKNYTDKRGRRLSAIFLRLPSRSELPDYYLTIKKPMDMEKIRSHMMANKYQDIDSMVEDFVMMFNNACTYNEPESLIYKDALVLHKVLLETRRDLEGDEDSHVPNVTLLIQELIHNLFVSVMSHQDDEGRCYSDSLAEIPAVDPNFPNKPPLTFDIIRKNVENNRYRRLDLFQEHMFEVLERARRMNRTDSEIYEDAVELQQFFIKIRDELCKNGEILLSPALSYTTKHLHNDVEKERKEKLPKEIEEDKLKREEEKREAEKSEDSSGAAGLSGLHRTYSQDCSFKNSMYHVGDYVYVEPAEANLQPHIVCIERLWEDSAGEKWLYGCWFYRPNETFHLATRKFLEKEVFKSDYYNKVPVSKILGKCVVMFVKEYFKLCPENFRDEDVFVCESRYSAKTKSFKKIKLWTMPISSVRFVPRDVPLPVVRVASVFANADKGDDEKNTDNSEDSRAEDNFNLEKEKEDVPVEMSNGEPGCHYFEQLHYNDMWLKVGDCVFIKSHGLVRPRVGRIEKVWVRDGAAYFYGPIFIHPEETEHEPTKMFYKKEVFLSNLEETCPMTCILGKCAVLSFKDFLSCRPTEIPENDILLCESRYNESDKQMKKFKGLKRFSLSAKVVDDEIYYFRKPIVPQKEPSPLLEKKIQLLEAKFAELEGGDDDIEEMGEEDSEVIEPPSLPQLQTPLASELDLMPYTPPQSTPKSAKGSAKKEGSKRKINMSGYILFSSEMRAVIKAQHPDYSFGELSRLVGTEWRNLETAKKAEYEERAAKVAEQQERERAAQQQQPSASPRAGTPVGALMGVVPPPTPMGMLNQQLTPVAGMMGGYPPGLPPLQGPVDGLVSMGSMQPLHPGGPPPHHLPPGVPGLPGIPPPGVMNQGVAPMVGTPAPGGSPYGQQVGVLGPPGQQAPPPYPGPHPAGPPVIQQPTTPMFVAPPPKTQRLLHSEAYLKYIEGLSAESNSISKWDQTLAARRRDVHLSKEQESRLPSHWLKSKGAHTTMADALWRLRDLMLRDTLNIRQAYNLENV

As for `Cn1cc2c3c(c[nH]c(=O)c31)-c1cc(CS(C)(=O)=O)ccc1N(c1ccc(F)cc1)C2`, the Activity worked out at 82% in series [1]; 85% in series [2]; 87% in series [3]; 100% in series [5]; 100% in series [6]; 100% in series [9]. The Activity in series [11] and in series [14] was 96% throughout. Moreover, in [4], the EC50 (commonly the concentration needed to bring the measured effect to its halfway point) amounted to 1.4 nM. The Papp in series [7] came to 5.1 ×10⁻⁶ cm/s. The inhibitory constant (Ki) (in general, a dissociation constant, usually derived from enzyme kinetics or from competition with a known ligand) in series [8] is 2.6 nM; in series [10] it was 5.9 nM; in series [12], 3.3 nM. In [13], this molecule came in with a CL free of 19 L/h/kg.
For `Cn1cc2c3c(c[nH]c3c1=O)CN(c1ccc(F)cc1F)c1ccc(CS(C)(=O)=O)cc1-2`, the Activity in series [1] came to 90%; in series [2], 18%; in series [3] it was 97%; in [5], 85%; in [6], 95%; in [9], 47%. The Activity in series [11] was found to be 56%; in [14], 81%. For the same molecule, in [4], the midpoint of the response, the EC50, lay at 3.4 nM. The Papp in series [7] was determined as 13 ×10⁻⁶ cm/s. The Ki amounted to 2.5 nM in series [8], 4.2 nM in [10] and 0.87 nM in series [12]. Also, the CL free in series [13] was 32 L/h/kg.
Regarding `Cn1cc2c3c(c[nH]c3c1=O)CN(c1ccccn1)c1ccc(CS(C)(=O)=O)cc1-2`, the Activity in series [1] worked out at 94%; in [2], 32%; in [3], 84%; in series [5], 83%; in [6], 89%; in series [9], 26%. The Activity in [11] turned out to be 38%; in [14] it was 62%. In [4], this molecule came in with a concentration for a half-maximal effect (EC50) of 1.3 nM. Also, the Papp in series [7] was found to be 6 ×10⁻⁶ cm/s. The Ki in series [8] stood at 0.48 nM; in series [10], 0.69 nM; in [12] it was 0.62 nM. Moreover, in series [13], the CL free was 14 L/h/kg.
